Measurements reported in a compilation of properties of binary mixtures (doi:10.1016/j.molliq.2017.08.014).

Assay: xn = mol fraction of the nth substance listed
Conditions: 101 kPa

In the case of `CCOC(C)=O` + CCCCn1cc[n+](C)c1.Cl[Fe-](Cl)(Cl)Cl, the viscosity (293.15 K, x2 = 0) was 0.46 mPa·s, the viscosity (298.15 K, x2 = 0) was 0.43 mPa·s and the viscosity (303.15 K, x2 = 0) was 0.41 mPa·s. The viscosity (308.15 K, x2 = 0) was 0.39 mPa·s, the viscosity (313.15 K, x2 = 0) was 0.37 mPa·s and the viscosity (318.15 K, x2 = 0) was 0.35 mPa·s. It also gave a viscosity (323.15 K, x2 = 0) of 0.33 mPa·s.

In the case of `CCCCn1cc[n+](C)c1.[Cl][Fe-]([Cl])([Cl])[Cl]` + CCOC(C)=O, the viscosity (293.15 K, x1 = 0.1002) was 1.17 mPa·s, the viscosity (293.15 K, x1 = 0.1999) was 2.37 mPa·s and the viscosity (293.15 K, x1 = 0.3007) was 4.32 mPa·s. It also gave a viscosity (293.15 K, x1 = 0.3999) of 7.33 mPa·s, a viscosity (293.15 K, x1 = 0.5) of 11.15 mPa·s and a viscosity (293.15 K, x1 = 0.7) of 22.98 mPa·s. For the same compound, the viscosity (293.15 K, x1 = 0.7973) was 30.8 mPa·s, the viscosity (293.15 K, x1 = 0.9) was 41.3 mPa·s and the viscosity (293.15 K, x1 = 1) was 56.6 mPa·s. The viscosity (298.15 K, x1 = 0.1002) was 1.09 mPa·s, the viscosity (298.15 K, x1 = 0.1999) was 2.19 mPa·s and the viscosity (298.15 K, x1 = 0.3007) was 3.92 mPa·s. It also gave a viscosity (298.15 K, x1 = 0.3999) of 6.53 mPa·s, a viscosity (298.15 K, x1 = 0.5) of 9.78 mPa·s and a viscosity (298.15 K, x1 = 0.6001) of 14.09 mPa·s. For the same compound, the viscosity (298.15 K, x1 = 0.7) was 19.72 mPa·s, the viscosity (298.15 K, x1 = 1) was 46 mPa·s and the viscosity (303.15 K, x1 = 0.1002) was 1.02 mPa·s. For the same compound, the viscosity (303.15 K, x1 = 0.1999) was 2.01 mPa·s, the viscosity (303.15 K, x1 = 0.3007) was 3.56 mPa·s and the viscosity (303.15 K, x1 = 0.3999) was 5.84 mPa·s. It also gave a viscosity (303.15 K, x1 = 0.5) of 8.64 mPa·s, a viscosity (303.15 K, x1 = 0.7) of 16.92 mPa·s and a viscosity (303.15 K, x1 = 0.9) of 28.7 mPa·s. The viscosity (303.15 K, x1 = 1) was 37.9 mPa·s, the viscosity (308.15 K, x1 = 0.1002) was 0.97 mPa·s and the viscosity (308.15 K, x1 = 0.3007) was 3.26 mPa·s. It also gave a viscosity (308.15 K, x1 = 0.5) of 7.69 mPa·s, a viscosity (308.15 K, x1 = 0.7) of 14.65 mPa·s and a viscosity (308.15 K, x1 = 0.9) of 24.4 mPa·s. The viscosity (313.15 K, x1 = 0.1002) was 0.91 mPa·s, the viscosity (313.15 K, x1 = 0.3007) was 2.99 mPa·s and the viscosity (313.15 K, x1 = 0.3999) was 4.76 mPa·s. For the same compound, the viscosity (313.15 K, x1 = 0.5) was 6.88 mPa·s, the viscosity (313.15 K, x1 = 0.6001) was 9.63 mPa·s and the viscosity (313.15 K, x1 = 0.7) was 12.81 mPa·s. The viscosity (313.15 K, x1 = 0.9) was 21.04 mPa·s, the viscosity (313.15 K, x1 = 1) was 27 mPa·s and the viscosity (318.15 K, x1 = 0.1002) was 0.86 mPa·s. The viscosity (318.15 K, x1 = 0.1999) was 1.66 mPa·s, the viscosity (318.15 K, x1 = 0.5) was 6.19 mPa·s and the viscosity (318.15 K, x1 = 0.6001) was 8.65 mPa·s. For the same compound, the viscosity (318.15 K, x1 = 0.7) was 11.32 mPa·s, the viscosity (318.15 K, x1 = 0.7973) was 14.58 mPa·s and the viscosity (318.15 K, x1 = 1) was 23.24 mPa·s. The viscosity (323.15 K, x1 = 0.1002) was 0.82 mPa·s, the viscosity (323.15 K, x1 = 0.1999) was 1.57 mPa·s and the viscosity (323.15 K, x1 = 0.3007) was 2.56 mPa·s. The viscosity (323.15 K, x1 = 0.3999) was 3.98 mPa·s, the viscosity (323.15 K, x1 = 0.5) was 5.63 mPa·s and the viscosity (323.15 K, x1 = 0.6001) was 7.79 mPa·s. It also gave a viscosity (323.15 K, x1 = 0.7) of 10.08 mPa·s, a viscosity (323.15 K, x1 = 0.7973) of 12.88 mPa·s and a viscosity (323.15 K, x1 = 0.9) of 16.08 mPa·s. For the same compound, the viscosity (323.15 K, x1 = 1) was 20.16 mPa·s.
